Laboratory results from patent US8017649B2, “Flavonoid compounds and uses thereof” (Howard Florey Institute of Experimental Physiology and …, priority 2005, dated 2011).
Entries after “also recorded” stand apart in the source; their conditions may differ.

What was measured:
[1] = tested on: endothelium-intact (EI) aortic rings; assay: PE-induced contraction of rat aortic rings; type: cell-based
Procedure: Rings were incubated for 20 minutes with DiOHF3HA at a range of concentrations (10^−7-10^−4 M) or vehicle (0.1% dimethyl sulphoxide, DMSO). A concentration response curve to PE (10^−9-10^−5 M) in endothelium-intact (EI) aortic rings was then performed. Experiments were conducted in the presence and absence of BuCHE (1000 U/L) to cleave the adipate in DiOHF3HA.

conscious rats = assay: Endothelin-1-induced ischaemic stroke in conscious rats; type: in vivo, rat; conditions: for hemineglect (sticky tape) test latency / infarct in cortex / infarct in striatum: DiOHF 10 mg/kg or DiOHF3HA 15 mg/kg/day i.v.; for infarct in cortex / infarct in striatum: 72 h
Procedure: Ischaemic stroke was studied in conscious rats, with daily monitoring of neurological function and post mortem morphological assessment of cerebral infarcts at 72 hours alter stroke. Unilateral, transient cerebral ischaemia and reperfusion was induced in conscious rats by injection of the potent vasoconstrictor endothelin-1 outside but close to the right middle cerebral artery MCA, (via a pre-implanted guide tube). The ensuing stroke was graded on a scale of 0 to 5 by immediate behaviour, and potential neuroprotective compounds were injected intravenously 3 h after the stroke, and at 24 hour intervals thereafter.
Male Hooded Wistar rats (280-340 g) were anaesthetised with pentobarbitone sodium in a volume of 0.6 ml (60 mg/kg i.p.) for insertion of an intravenous (i.v.) catheter into the jugular vein for acute drug administration, A 23-gauge stainless steel guide cannula was then stereotaxically implanted into the piriform cortex 2 mm dorsal to the right MCA (0.2 mm anterior, −5.2 mm lateral and −5.9 mm ventral). The cannula was secured with dental acrylate cement and two small screws inserted into the skull. The scalp was closed with sutures. Rats were housed individually on a 12 h day/night cycle at a temperature of 18-22° C. and allowed to recover for 5 days before induction of stroke.
Vaso constriction of the right middle cerebral artery (MCA) was induced in conscious rats by administration of the potent vasoconstrictor agent endothelin-1 (ET-1) (60 pmol in 3 μl of saline over 10 min) via a 30-gauge injector that protruded 2 mm beyond the end of the previously implanted stereotaxic guide cannula. The injector was held in place by a poly-tubing cuff and the rat was placed in a clear Plexiglass box for observation during ET-1 injection. During stroke induction we observed counter-clockwise circling, clenching and dragging of the contralateral forepaw, validating the correct placement of the cannula. These behavioural changes occurred within 2 to 10 minutes of the commencement of the ET-1 injection and similar behaviours have been reported by other researchers employing this model. We have assigned a rating scale of stroke severity based on these behavioural changes during stroke and have shown that vehicle-treated rats assigned with higher stroke ratings have greater infarct volumes and neurological deficits. […] Rectal temperatures were taken with a thermistor probe, prior to stroke and at 30- or 60-minute intervals for 3 hours after stroke.
All behavioural tests were conducted prior to any procedures (pre-surgery, day 1), immediately prior to ET-1-induced MCA occlusion (pre-ischemia, day 6) and 24, 48 and 72 hours after ET-1-induced MCA occlusion. The behaviour of each rat was compared to pre-stroke, thus each rat acted as its own control. All rats were coded so that the investigator was blinded to treatment condition. Neurological abnormalities were evaluated with the use of a neurological deficit score based on detection of abnormal posture and hemiplegia. Abnormal pastures were assessed by suspending rats by the tail and scoring twisting of the thorax and extension of the forelimbs. Hemiplegia was evaluated when rats were placed on a raised platform. Deficits were deemed to be present when the hind limb contralateral to the infarcted hemisphere slipped off the edge of the platform and/or when the contralateral forelimb slipped off when the snout and whiskers were not in contact with the surface. All behaviours were scored on the following scale: 0=no deficit; 1=slight; 2=moderate; and 3=severe. Thus, when scores were totalled the maximum neurological deficit score was 12. A score of 0 was considered normal.
Sensory hemi-neglect was evaluated using a test consisting of placing adhesive tapes (Avery adhesive label, […] circles) on the distal-radial region of each wrist, Placement of the first tape was randomised between contralateral and ipsilateral limbs. […]

[2] = tested on: myocardial ischaemia and reperfusion; conditions: Wang et al., British Journal of Pharmacology (2004) 142, 443-452; cited from earlier work
aortic rings = assay: Effect on SNP relaxation of precontracted rat aortic rings; type: cell-based
Procedure: After wash out and re-equilibration for 30 min, the aortic rings were then submaximally precontracted with PE and U46619, which were used to produce an active tension of 45-60% of the KPSS-induced maximum contraction. When investigating the effects of the flavonoids, flavonol, flavone-3-hemiadipate (F3HA), 3′, 4′-dihydroxyflavone, 3′,4′-dihydroxyflavonol, 3′,4′-dihydroxyflavone-3-hemiadipate (DiOHF3HA), and flavone-3-phosphate (F3P) on vasorelaxant responses, rings were incubated with one of the compounds for 20 mins before they were precontracted submaximally, followed by a cumulative-concentration response curve to ACh (100 nM-10 μM) or SNP ([…]). In experiments using F3P 1000U/L phosphatase was used in some experiments to cleave the phosphate. Some experiments were conducted in the presence and absence of butyryl cholinesterase (BuCHE, 1000 U/L) to cleave the adipate in DiOHF3HA and F3HA.

rat aortic rings = assay: Relaxation of rat aortic rings in response to A23187 or isoprenaline; type: cell-based; conditions: 0.1 mM, absence or presence of cholinesterase
[3] = Solubility in aqueous solution; type: physicochemical; conditions: water
[4] = mild to moderate strokes, DiOHF 10 mg/kg or DiOHF3HA 15 mg/kg/day i.v. from 3 h post-stroke
[5] = all stroke grades (2-4), DiOHF3HA 15 mg/kg/day

Row | Structure (SMILES) | effect on PE-induced contraction ([1]; alone, 0.1 mM) | hemineglect (sticky tape) test latency (conscious rats; mild to moderate strokes) | neurological deficit score (conscious rats; [4]) | infarct in cortex (conscious rats; mild to moderate strokes) | infarct in striatum (conscious rats; mild to moderate strokes) | infarct and injury associated with myocardial ischaemia and reperfusion [2] | effect on PE-induced contraction ([1]; in the presence of esterase (BuCHE)) | effect on relaxant response to SNP (aortic rings; in the presence of BuCHE or phosphatase) | effect on relaxant response to SNP (aortic rings; substance alone) | relaxation in response to A23187 or isoprenaline (rat aortic rings) | area of damage in the striatum (conscious rats; all stroke grades (2-4), DiOHF3HA 15 mg/kg) | infarct area through the cortex (conscious rats; all stroke grades (2-4), DiOHF3HA 15 mg/kg i.v.) | body weight following stroke (conscious rats; [5]) | core temperature following intravenous injection (conscious rats; [5]) | hemineglect (sticky label) test latency (conscious rats; [5]) | neurological deficit score (conscious rats; all stroke grades (2-4), DiOHF3HA 15 mg/kg/day, 24, 48 or 72 hours) | body weight following stroke (conscious rats; mild to moderate strokes, DiOHF3HA 15 mg/kg/day) | solubility in aqueous solution [3]
1 | O=c1c(O)c(-c2ccc(O)c(O)c2)oc2ccccc12 [DiOHF, 3′,4′-Dihydroxyflavonol, reference compound] | inhibit the response to PE in a concentration dependent manner | abolished the increase in hemineglect scores | reduced the neurological deficits at 48 and 72 h; also recorded: significantly improved neurological outcome | reduced the volume of infarct produced in the cerebral cortex; also recorded: significantly reduced the area of infarct | completely prevented an infarct developing in the striatum; also recorded: significantly reduced the area of infarct | reduce Infarct and injury associated with myocardial ischaemia and reperfusion | – | – | – | – | – | – | – | – | – | – | – | –
2 | O=C(O)CCCCC(=O)Oc1c(-c2ccc(O)c(O)c2)oc2ccccc2c1=O [DiOHF3HA, 3′,4′-dihydroxyflavone-3-hemiadipate] | no effect on PE-induced contraction | abolished; also recorded: significantly restored neurological function in the hemineglect test | no effect on neurological deficit scores | significantly reduced | significantly reduced the area of infarct through the striatum | – | inhibit the response to PE in a concentration dependent manner; also recorded: marked inhibition | significantly increased the sensitivity of the relaxant response to SNP | no effect on relaxant responses to ACh or SNP | no effect on endothelium-dependent relaxation | reduced the area of damage in the striatum | significantly reduced | no significant weight loss | not significantly different from pre-stroke temperature | abolished; also recorded: significantly improved neurological function in the hemineglect test | measurably improved neurological deficit scores | did not lose weight | soluble in aqueous solution, particularly water
